From patent US20260125388A1 (priority 2022, published 2026)
Converted amounts (≈) assume the structure as drawn.

Assays:
[1] = test system: C57/BL6 mice challenged with MC903; test: Acute treatment in the MC903 mouse model, scratch count; format: in vivo; details: single oral gavage on day 19; recording from 40 min after dose; oclacitinib 45 mg/kg, PI-301 100 mg/kg; p<0.05 vs vehicle
Description: In another study, the acute treatment effects of oclacitinib (a JAK inhibitor approved for veterinary use) and PI-301 were studied in the MC903 model using C57/BL6 mice. As described previously, MC903 was applied topically on both sides of both ears (1 nmol). On day 19 of the study (D1), drugs or vehicle were administered to individual treatment groups by oral gavage: oclacitinib (45 mg/kg) or PI-301 (100 mg/kg). Mice were video recorded for 60 minutes beginning 40 minutes after drug administration and scratches counted.

[2] = test system: IL-6, IL-10, IL-13 and TSLP mRNA in mouse ears; test: RT-PCR of cytokine mRNA in ears of MC903 challenged mice; format: in vivo; details: ear mRNA, vs vehicle
Description: RT-PCR was used to assay the change in cytokines in MC903 challenged animals treated with PI-301. Left mouse ears stored at −20° C. were thawed, rinsed with water and homogenized in 500 μL RLT buffer (Qiagen, 79216). The liquid was added to a QIAshredder (Qiagen, 79654) and centrifuged at 6000 g for 2 min. 350 μL of the supernatant was combined with 350 μL 70% ethanol and mRNA purified with a RNeasy Mini Kit (Qiagen, 74104). mRNA was analyzed using the Accuris qMAX Green One-Step RT-qPCR Kit (Accuris Instruments) along with primers for IL-4, IL-5, IL-6, IL-10, IL-13, INFγ, and TSLP. Data were acquired using an Eppendorf Mastercycler Pro (45° C. 10 min, 95° C. 2 min, [95° C. 30 s, 55° C. 1 min, 72° C. 2 min]×45) and analyzed by the Delta and Delta-Delta Ct method. Each measurement was carried out in triplicate.

[3] = test system: C57/BL6 male mice challenged with MC903; test: Mouse atopic dermatitis model, MC903 challenge, twice daily oral dosing; format: in vivo
Description: An established mouse model of atopic dermatitis (AD) was used to evaluate the efficacy of PI-301 ((R)-8-bromo-6-(2-fluorophenyl)-4-methyl-4H-benzo[f]-imidazo[1,5-a][1,4]diazepine-3-carboxylic acid) in reducing ear thickness, scratching frequency, and inflammatory markers following MC903 challenge (for background on the model see: J Invest Dermatol 138, 2606-2616; Proc Natl Acad Sci USA, 103, 11736-11741; Sci Transl Med, 5, 170ra116; J Invest Dermatol, 138, 1555-1563). The increase of ear thickness is based on the increased diameter of stratum, epidermis, and dermis as determined by standard histological analysis. The thickening of the stratum is based on parakeratosis and hyperkeratosis, the thickening of the epidermis is based on acanthosis and spongiosis and the thickening of the dermis is based on inflammatory infiltration. This reflects increased numbers of neutrophils, mast cells, and, to a lesser extent, eosinophils.
C57/BL6 male mice 8 weeks of age were group housed under a 12 h light/dark cycle. For oral dosing, groups of 8 mice were each given twice daily treatment by voluntary feeding of vehicle (peanut butter) or PI-301 (100 mg/kg in vehicle). Animal weights were recorded daily. Three times per week animals were administered MC903 (1 nmol) on both ears topically. Ear thickness was measured with calipers and photographed.

[4] = test system: HEK293 cells; test: Cytotoxicity, CellTiter-Glo cell viability assay; format: cell-based, human; details: HEK293 cells, CellTiter-Glo; Table 3
Description: Compounds with increased cytotoxicity can be identified using an in vitro cytotoxicity assay. Therefore, human embryonic kidney 293T (HEK293T) cell lines were purchased (ATCC) and cultured in 75 cm2 flasks (CellStar). Cells were grown in DMEM/High Glucose (Hyclone, #SH3024301) media to which non-essential amino acids (Hyclone, #SH30238.01), 10 mM HEPES (Hyclone, #SH302237.01), 5×106 units of penicillin and streptomycin (Hyclone, #SV30010), and 10% of heat inactivated fetal bovine serum (Gibco, #10082147) were added. Cells were harvested using 0.05% Trypsin (Hyclone, #SH3023601). The cell viability assay was evaluated using CellTiter-Glo™ Luminescent Cell Viability Assay Kit (Promega, Madison, WI), which contains luciferase and all its substrate except ATP. The controls for the cytotoxicity assay used were (E)-10-(bromotriphenylphosphoranyl)decyl 4-(4-(tert-butyl)phenyl)-4-oxobut-2-enoate (400 μM in DMSO, positive control) and DMSO (negative control). All luminescence readings were performed on a Tecan Infinite M1000 plate reader. Small volume transfers were performed on the Tecan Freedom EVO liquid handling system with a 100 nL pin tool transfer (V&P Scientific). Serial dilutions were done in 96-well polypropylene plates (Coming, #3365) and assays were conducted in 384-well white optical bottom plates. The assays were carried out in quadruplet in three independent runs. The data were normalized to the controls and if possible analyzed by nonlinear regression (GraphPad Prism).

[5] = Aqueous solubility, shake flask in PBS buffer; format: physicochemical; details: for Aqueous solubility: pH 7.2
Description: 5-50 mg of compound was added to 500 μL of PBS buffer at pH 7.4. The pH was adjusted if necessary, using a 1M NaOH solution. The solutions were vortexed for 10 s, sonicated for 2 min and agitated with a horizontal shaker in a closed vial for 24 h. The mixtures were transferred to an Eppendorf tube and centrifuged for 5 min at 16000×g followed by filtration through […] cellulose acetate spin X centrifuge filter (Costar). 200 μL of filtrate was transferred to a new Eppendorf tube and 200 μL of methanol was added and then subsequent dilution was made in 50:50 methanol/PBS buffer water if necessary. After mixing, 50 μL were transferred into a 384 well plate (Coring UV star, 781801) for UV detection at 250-600 nm (Tecan M1000). The assay was carried out with three independent samples of each compound. The concentration of each solution was determined with a calibration curve in 50:50 methanol/PBS buffer water. Absorbance of corresponding methanol PBS blank were recorded and subtracted from the absorbance of calibration curve solutions and from the samples.

[6] = test system: GABAA receptor; test: GABAA receptor binding, competition assay with [3H]-flunitrazepam and rat brain membranes; details: 3H-flunitrazepam, rat brain extract; for GABAAR binding, % inhibition at 10 μM: Table 3; for IC50: read-out: GABAAR binding (IC50), value in brackets, Table 3, unit inferred
Description: GABAA receptor binding: Rat brain membranes were prepared from frozen tissue that was thawed on ice and homogenized on ice in 10 volumes of cold lysis buffer (50 mM Tris HCl, pH 7.4, containing protease inhibitor cocktail from Roche) using a Polytron homogenizer (6 pulses and 10 seconds per pulse). The homogenate was centrifuged at 1,000×g for 10 min at 4° C. to obtain the supernatant. The supernatant was then centrifuged at 40,000×g for 20 min, and the resulting supernatant decanted and replaced with the same ice-cold lysis buffer. Two or three additional rounds of homogenization-centrifugation were performed to ensure thorough homogenization and also to wash out endogenous ligands. The final pellet was resuspended in the same buffer and homogenized one last time. […] Total binding and nonspecific binding were determined with reference compound clonazepam. […] Scintillation cocktail is then melted onto the microwave-dried filters on a hot plate and radioactivity counted in a Microbeta counter. The data (n=6) were analyzed by nonlinear regression.

[7] = in vitro; details: PAMPA, pH 7.4
Description: (§1) The artificial membrane was prepared by carefully pipetting 15 μL of the 5% (v/v) hexadecane in hexane solution to each of the wells of the donor plate. The plate was placed into a fume hood for 1 h to ensure complete evaporation of the hexane. After the hexane had evaporated, 300 μL of PBS with 5% (v/v) DMSO was added to each of the wells of the acceptor plate. The hexadecane treated donor plate was then placed on top of the acceptor plate taking care that the underside of the membrane is completely in contact with the solution in each of the acceptor wells. […] The lid was placed on the plates and the entire plate sandwich was placed into a closed humid environment. The container was then placed on a reciprocal shaker for agitation at about 100 rpm. The time at the beginning of the incubation was recorded, as this is a thermodynamic-based assay. The incubation was then allowed to continue for 18 h. The donor plate was removed and 50 μL of the acceptor solution was transferred to the UV plate. Drug solutions at the theoretical equilibrium concentration (100 μM) was also prepared and transferred to the UV plate. The absorbance of the solutions in the UV plate was then scanned from 250-600 nm with 1 nm steps and a 5 nm bandwidth. Log Pe was calculated as follows (Equation 1).

[8] = parallel artificial membrane permeation assay at pH 7.4
Description: as §1

Row | SMILES | scratches counted over 60 minutes [1] | Cytotoxicity LD50 [4] | Aqueous solubility [5] | GABAAR binding, % inhibition at 10 μM [6] | IC50 [6] | Papp [7] | also measured
1 | CNS(=O)(=O)C[C@H]1CC[C@H](N(C)c2ncnc3[nH]ccc23)CC1 [oclacitinib, reference compound] | significant (p<0.05) reduction in scratches | – | – | – | – | – | –
2 | C[C@H]1N=C(c2ccccc2F)c2cc(Br)ccc2-n2cnc(C(=O)O)c21 [PI-301, (R)-8-bromo-6-(2-fluorophenyl)-4-methyl-4H-benzo[f]-imidazo[1,5-a][1,4]diazepine-3-carboxylic acid] | significant (p<0.05) reduction in scratches | – | – | – | – | – | IL-6 induction [2]: reduced induction; IL-10 induction [2]: reduced induction; IL-13 induction [2]: reduced induction; TSLP induction [2]: reduced induction; number of scratches ([3]; 100 mg/kg oral twice daily, days 19 and 22, vs vehicle): significantly reduced; increase of ear thickness due to MC903 ([3]; 100 mg/kg oral twice daily, significant on day 10, vs vehicle): reduced the increase of ear thickness; thicknesses of the dermis and epidermis ([3]; histology of H&E stained ear sections, p<0.005 vs vehicle): significant differences
3 | CCC1N=C(c2ccccc2F)c2cc(Br)ccc2NC1=O (centres unmarked) [Compound 35, 7-bromo-3-ethyl-5-(2-fluorophenyl)-1,3-dihydro-2H-benzo[e][1,4]diazepin-2-one] | – | >150 µM | 397 ± 31 µM | 95% | 134 nM | 2 ×10⁻⁶ cm/s | –
4 | C#Cc1ccc2c(c1)C(c1ccccc1F)=NC1(CC1)c1c(C(=O)OCC)ncn1-2 [Compound 18] | – | >150 µM | – | 56% | 509 nM | 25.1 ×10⁻⁶ cm/s | solubility at 24 h ([5]; PBS buffer, aqueous buffer, thermodynamic from solid, pH 7.2, read-out: Aqueous solubility): 53 ± 3 µM (≈ 21.2 µg/mL)
5 | CCOC(=O)c1ncn2c1C1(CCC1)N=C(c1ccccc1F)c1cc(Br)ccc1-2 [Compound 11] | – | 106 ± 9 µM | 144 ± 7 µM | 19 (n.d.) % | – | – | Permeability (log Pe (cm/s)) [8]: −5.8 ± 0.10 cm/s
